Test results published in paper PMC6967409 (Frontiers in Chemistry, 2020).
Values joined by “and” are separate entries in the source; they are usually repeats but may differ in a detail not shown here. Equal entries are not always repeated. Where two headings read alike, the source gives them in different places.

What was measured:
P. falciparum NF54 [1] = experiment: Metabolic (parasite LDH) assay, asexual ring stage parasites, 48 h; format: cell-based; settings: Plasmodium falciparum, pLDH, CQ-sensitive NF54
Method: (§1) P. falciparum parasites (NF54, K1, and W2) were cultured in vitro in human erythrocytes (A^+ or O^+) under 90% N2, 5% CO2, and 5% O2 atmospheric conditions with supplemented RPMI 1640 media (Sigma Aldrich) containing Albumax II, as previously described (Verlinden et al., [2011]). This study was carried out according the guidelines set out by the Faculty of Health Sciences Ethical Committee, Ethical Clearance no. EC-120821/077. The protocol was approved by the Faculty of Health sciences ethical committee at the University of Pretoria. All subjects gave written informed consent in accordance with the Declaration of Helsinki. Parasite proliferation was monitored microscopically using Giemsa stained smears. Synchronized ring stage parasites (>95%) were obtained using a 5% D-sorbitol (Sigma Aldrich) treatment. […] Gametocyte cultures were kept stationary under 90% N2, 5% CO2, and 5% O2 atmospheric conditions at 37°C and treated with 50 mM N-acetyl-glucosamine (NAG) to eliminate residual invasion of asexual parasites.
(§2) Working solutions of the derivatives were prepared from a 10 mM stock solution in 100% DMSO in supplemented RPMI 1640 media containing Albumax II with a final DMSO concentration of <0.1%, previously determined as being non-toxic to intraerythrocytic asexual parasites and gametocytes. Dose responses were assayed using a two-fold serial drug dilution on in vitro >95% ring stage intraerythrocytic P. falciparum parasites at 37°C under 90% N2, 5% CO2, and 5% O2 atmospheric conditions, detecting both parasite lactate dehydrogenase (pLDH) activity as a metabolic marker following a 48 h drug exposure (1.5–2% parasitemia and 2% hematocrit; Makler et al., [1993]) and SYBR Green I fluorescence as proliferative marker following a 96 h drug exposure (1% parasitemia and 1% hematocrit). […] Data analysis was performed using GraphPad Prism 7.

P. falciparum Dd2 = experiment: as above; format: cell-based; settings: Plasmodium falciparum, pLDH, Dd2 CQ, pyrimethamine resistant
Method: as §2

P. falciparum K1 = experiment: Proliferative (SYBR Green I) assay, asexual parasites, 96 h; format: cell-based; settings: Plasmodium falciparum, ±SEM
Method: as §1, §2

P. falciparum NF54 [2] = experiment: as above; format: cell-based; settings: Plasmodium falciparum, ±SEM
Method: as §1, §2

P. falciparum W2 = experiment: as above; format: cell-based; settings: Plasmodium falciparum, ±SEM
Method: as §1, §2

Cytotoxicity, MTT assay = format: cell-based; settings: Chinese hamster, CHO cells
Method: (§3) Cytotoxicity (EC50) was determined against Chinese hamster ovarian (CHO) using a 3-(4,5-dimethylthiazol-2-yl)-2,5-diphenyltetrazolium bromide (MTT) assay and hepatocellular carcinoma cells (HepG2) using the Cytoselect LDH cytotoxicity assay kit (Cell Biolabs).

[3] = Cytotoxicity, Cytoselect LDH cytotoxicity assay kit; format: cell-based; settings: human, HepG2 cells
Method: as §3

[4] = test system: P. falciparum NF54 early stage gametocytes (>90% stage I–III); experiment: Gametocytocidal luciferase reporter assay, early stage, 48 h; format: cell-based; settings: Plasmodium falciparum, NF54, 48 h, read-out: Early Stage (EG, Luc 48 h) IC50
Method: as §1
(§4) Gametocytocidal activity was determined using the luciferase reporter line (Reader et al., [2015]) to derive dose responses with two-fold serial drug dilutions for 48 h against early stage gametocytes (day 5 post-induction population, >90% stage I–III) and 10-fold serial drug dilutions for 72 h against late stage gametocytes (day 10 post-induction population, >90% late stage IV–V) (2% gametocytemia, 2% hematocrit), at 37°C under 90% N2, 5% CO2, and 5% O2 atmospheric conditions.

[5] = test system: P. falciparum NF54 late stage gametocytes (>90% stage IV and V); experiment: Gametocytocidal luciferase reporter assay, late stage, 72 h; format: cell-based, Plasmodium falciparum; settings: Plasmodium falciparum, NF54, 72 h, read-out: Late Stage (LG, Luc 72 h) IC50, >90% stage IV and V gametocytes, ±SEM
Method: as §1, §4

[6] = test system: asexual P. falciparum NF54, Dd2, K1, W2; experiment: Asexual P. falciparum, metabolic (pLDH) and proliferative (SYBR Green I) platforms; format: cell-based; settings: Plasmodium falciparum; drug-sensitive and -resistant parasites, both assay platforms; read-out: IC50, asexual P. falciparum metabolic activity and proliferation
Method: Data analysis was performed using GraphPad Prism 7.
The in vitro activities of the new derivatives were determined against drug sensitive NF54 and multi-drug resistant Dd2, K1, and W2 intraerythrocytic asexual P. falciparum malaria parasite strains using both a metabolic (parasite LDH) and a proliferative (SYBR Green I fluorescence) assay readout (Table 1).

[7] = test system: P. berghei ANKA GFP-Luc-SMcon sporozoites; experiment: P. berghei-luciferase liver stage bioluminescence assay (causal prophylactic mode) in HepG2-CD81 cells; format: cell-based, Plasmodium berghei
Method: (§5) Briefly, HepG2-CD81 cells were seeded into 1,536 well plates containing 50 nL of test and control compounds diluted into DMSO. […] Next, 2 μL of luciferin reagent (Promega BrightGlo) was added to each well and luciferase activity was detected using a Perkin Elmer Envision plate reader. […] In parallel, plates were processed without sporozoites for HepG2 toxicity measurements.
(§6) In continuation of the transmission blocking theme, it is important to establish activities against liver stage parasites. […] This assay uses ultra-high-throughput screening methods optimized for a 1536-well format and a HepG2 human hepatoma cell line. […] To establish selectivity of the compounds for the parasite in the liver stage of infection, cytotoxicity was determined by measuring bioluminescence from the reaction between free ATP of compound-treated, uninfected hepatocytes and a luciferase reporter system.

[8] = HepG2 cytotoxicity bioluminescence assay (CellTiterGlo, ATP); format: cell-based, human; settings: human, uninfected HepG2-CD81 cells
Method: as §5, §6

HepG2 cells = experiment: as above; format: cell-based, human; settings: two biological replicates listed in one cell
Method: as §5, §6

[9] = >90% stage I–III gametocytes, ±SEM

C[C@H]1[C@H](N2CCN(S(=O)(=O)c3ccc(F)cc3)CC2)O[C@@H]2O[C@@]3(C)CC[C@H]4[C@H](C)CC[C@@H]1[C@@]24OO3 [Compound 19]
IC50 (P. falciparum NF54 [1]): 1.65 ± 0.04 nM
IC50 (P. falciparum Dd2): 9.8 ± 0.4 nM
IC50 (P. falciparum K1): 4.2 ± 0.1 nM
IC50 (P. falciparum NF54 [2]): 3.4 ± 0.4 nM
IC50 (P. falciparum W2): 4.8 ± 0.5 nM
EC50 (Cytotoxicity, MTT assay): > 196000 nM
EC50 [3]: 558 nM
IC50 [4, 9]: 12.1 ± 4.5 nM
IC50 [5]: 0.7 ± 0.5 nM

CCCCCCNC(=O)N1CCN([C@@H]2O[C@@H]3O[C@@]4(C)CC[C@H]5[C@H](C)CC[C@@H]([C@H]2C)[C@@]35OO4)CC1 [Compound 20]
IC50 [6]: 50 to 100 nM

CCCCCCCCCCCCCCCCNC(=O)N1CCN([C@@H]2O[C@@H]3O[C@@]4(C)CC[C@H]5[C@H](C)CC[C@@H]([C@H]2C)[C@@]35OO4)CC1 [Compound 21]
IC50 [6]: 50 to 100 nM

C[C@H]1[C@H](N2CCN(C(=O)Nc3ccc(C(C)(C)C)cc3)CC2)O[C@@H]2O[C@@]3(C)CC[C@H]4[C@H](C)CC[C@@H]1[C@@]24OO3 [Compound 22]
IC50 (P. falciparum NF54 [1]): 2.11 ± 0.53 nM
IC50 (P. falciparum Dd2): 24.7 ± 2.79 nM
IC50 (P. falciparum K1): 1.12 ± 0.08 nM
IC50 (P. falciparum NF54 [2]): 1.87 ± 0.12 nM
IC50 (P. falciparum W2): 1.48 ± 0.14 nM
EC50 (Cytotoxicity, MTT assay): 2920 nM
EC50 [3]: 616 nM
IC50 [4]: 45.9 ± 9.9 nM
IC50 [5]: 17.7 ± 15.1 nM

CCCCCCCCCCCCCCCC(=O)N1CCN([C@@H]2O[C@@H]3O[C@@]4(C)CC[C@H]5[C@H](C)CC[C@@H]([C@H]2C)[C@@]35OO4)CC1 [Compound 26]
IC50 [6]: 50 to 100 nM

C[C@H]1[C@H](NS(=O)(=O)N2CCN(c3ccccn3)CC2)O[C@@H]2O[C@@]3(C)CC[C@H]4[C@H](C)CC[C@@H]1[C@@]24OO3 [Compound 29]
IC50 (P. falciparum NF54 [1]): 1.68 ± 0.18 nM
IC50 (P. falciparum Dd2): 6.4 ± 1.4 nM
IC50 (P. falciparum K1): 4.9 ± 0.9 nM
IC50 (P. falciparum NF54 [2]): 4.3 ± 0.4 nM
IC50 (P. falciparum W2): 3.3 ± 0.7 nM
EC50 (Cytotoxicity, MTT assay): > 197000 nM
EC50 [3]: 173 nM
IC50 [4, 9]: 24.7 ± 4.9 nM
IC50 [5]: 0.04 ± 0.03 nM

C[C@H]1[C@H](NS(=O)(=O)N2CCN(c3ccc(C(F)(F)F)cn3)CC2)O[C@@H]2O[C@@]3(C)CC[C@H]4[C@H](C)CC[C@@H]1[C@@]24OO3 [Compound 30]
IC50 (P. falciparum NF54 [1]): 1.8 ± 0.6 nM
IC50 (P. falciparum Dd2): 9.64 ± 0.6 nM
IC50 (P. falciparum K1): 4.3 ± 1.3 nM
IC50 (P. falciparum NF54 [2]): 3.3 ± 0.3 nM
IC50 (P. falciparum W2): 3 ± 1 nM
EC50 (Cytotoxicity, MTT assay): 34300 nM
EC50 [3]: 311 nM
IC50 [4, 9]: 19.3 ± 6.2 nM
IC50 [5]: 4 ± 3.8 nM

COc1ccc(C[C@H](N)C(=O)N[C@H]2[C@@H](O)[C@H](n3cnc4c(N(C)C)ncnc43)O[C@@H]2CO)cc1 [Puromycin]
Emax ([7]; Plasmodium berghei, 48 h, two biological replicates listed in one cell, read-out: P.berghei-Luciferase Liver Stage Bioluminescence Assay: Maximum measured (%)): 107%
IC50 ([7]; Plasmodium berghei, HepG2, 48 h, liver stage, HepG2 host cells, luciferase after 48 h, ±SD, read-out: P. berghei sporozoites IC50): 22.7 ± 4.53 nM
IC50 ([7]; Plasmodium berghei, two biological replicates listed in one cell, read-out: P.berghei-Luciferase Liver Stage Bioluminescence Assay: IC50): 19.5 nM
inhibition at 5 µM ([7]; Plasmodium berghei, Conc. 5 μM, read-out: P. berghei sporozoites Maximum inhibition %): 110 ± 4.24%
IC50 ([7]; two biological replicates listed in one cell, read-out: P.berghei-Luciferase Liver Stage Bioluminescence Assay: IC50): 25.9 nM
IC50 at 72 h ([8]; two biological replicates listed in one cell): 114 nM
EC50 at 72 h ([8]; uninfected HepG2, ATP bioluminescence): 117 nM
HepG2 Cytotoxicity Bioluminescence Assay: Maximum measured (%) (HepG2 cells): 102.0% and 105.0%
IC50 (HepG2 cells): 120 nM
